Results published in patent US4246262A, “Derivatives of amidinopenicillanic acid” (Leo Pharmaceutical Products, Ltd. A/S, priority 1977, dated 1981).
Values after ≈ are worked out from the molar mass of the structure shown. Where a name gives a salt, the structure may show the parent alone.

Experiments:
Test in all cases: antibacterial activity, IC50 (concentration required for 50 percent inhibition)
Format in all cases: cell-based
[1] = test system: Salmonella cholerasuis NCTC 5735; settings: NCTC5735
From the text: (§1) In the table below, the antibacterial activity of the compound of Example 2 is compared to that of the known compounds Ampicillin and Mecillinam.
(§2) In the table IC50 means the concentration required for 50 percent inhibition.

[2] = test system: E.coli HA 2 Leo strain; settings: Escherichia coli, HA2LEOSTRAIN
From the text: as §1, §2

[3] = test system: Pseudomonas aeruginosa BA 2 Leo strain; settings: BA2LEOSTRAIN
From the text: as §1, §2

[4] = test system: Pseudomonas aeruginosa PS 18s; settings: PS18S
From the text: as §1, §2

[5] = test system: E.coli W3110 (RTEM); settings: Escherichia coli
From the text: as §1, §2

[6] = test system: Enterobacter cloacae P 99; settings: P99
From the text: as §1, §2

[7] = test system: Klebsiella pneumoniae ATCC 10273; settings: ATCC10273
From the text: as §1, §2

[8] = test system: Salmonella typhimurium NCTC 5710; settings: Salmonella enterica
From the text: as §1, §2

Row | SMILES | IC50 [1] [µg/mL] | IC50 [2] [µg/mL] | IC50 [3] [µg/mL] | IC50 [4] [µg/mL] | IC50 [5] [µg/mL] | IC50 [6] [µg/mL] | IC50 [7] [µg/mL] | IC50 [8] [µg/mL]
1 | CC1(C)S[C@@H]2[C@H](/N=C/N3CCCCCC3)C(=O)N2[C@H]1C(=O)O [Mecillinam] | 0.05 (≈ 0.154 µM) | 0.016 (≈ 0.0492 µM) | > 100 | > 100 | 2 (≈ 6.15 µM) | 0.1 (≈ 0.307 µM) | ~1 (≈ 3.07 µM) | 0.05 (≈ 0.154 µM)
2 | CC1(C)S[C@@H]2[C@H](NC(=O)[C@H](N)c3ccccc3)C(=O)N2[C@H]1C(=O)O [Ampicillin] | 0.25 (≈ 0.715 µM) | 1.3 (≈ 3.72 µM) | > 100 | 50 (≈ 143 µM) | > 100 | > 100 | 79 (≈ 226 µM) | 0.4 (≈ 1.14 µM)
3 | CC1(C)S[C@@H]2[C@H](N=CN3CCC(CSCCN)CC3)C(=O)N2[C@H]1C(=O)O [Example 2, 6-[4'-(2"-Aminoethylthiomethyl)-piperidino-methyleneamino]-penicillanic acid hydrochloride] | 0.05 | 0.05 | 50 | 40 | 1.6 | 0.063 | 0.32 | 0.05
